Calls of active or inactive are those of the source.
Tests used:
Assay type in all cases: functional, organism-based
Escherichia coli = assay: Antimicrobial activity against Escherichia coli at 150 ug/disk
[1] = system: Cladosporium cladosporioides; assay: Antimicrobial activity against Cladosporium cladosporioides at 150 ug/disk
Bacillus subtilis = assay: Antimicrobial activity against Bacillus subtilis at 150 ug/disk
Saccharomyces cerevisiae = assay: Antimicrobial activity against Saccharomyces cerevisiae at 150 ug/disk
Bacillus cereus = assay: Antimicrobial activity against Bacillus cereus at 150 ug/disk

Measured: Activity

COc1ccc([C@@H](O)[C@H](C)O)cc1Cl
inactive: all assays above

— ChEMBL document CHEMBL1159282, “Secondary Mold Metabolites, Part 49. Isolation, Structural Elucidation, and Biomimetic Synthesis of Trametol, a New 1-Arylpropane-1,2-diol Produced by the Fungus Trametes sp” (J Nat Prod, 1995)
